Source: patent publication US6992188B1, “Substituted heterocyclic derivatives” (Pfizer, Inc., priority 1995, dated 2006)

`CCC(CC)n1c(=O)[nH]c2c(Oc3c(C)cc(C)cc3C)nc(C)cc21` [Example 4, 1-(1-Ethylpropyl)-6-methyl-4-(2,4,6-trimethylphenoxy)-1,3-dihydro-imidazo[4,5-c]pyridin-2-one] gave a melting point of 235 to 237 °C.
